Assay results: patent US12208080B2, “Compositions and methods for modulation of extracellular vesicle release and treatment of neurological disorders” (GEORGE MASON RESEARCH FOUNDATION, INC., priority 2018, dated 2025)

Assays:
[1] = system: autophagy proteins (p62, LC3, ATG12-ATG5, ATG12, Beclin-1) in U1 cells; assay: Autophagy protein profile, CBD versus autophagy drugs, in U1 cells and their EVs (Western blot); type: cell-based; conditions: 5 days, Rapamycin 50 nM, INK128 50 nM
Experimental: (§1) FIGS. 18A-18B are gels showing CBD promotes autophagy turnover, resulting in a decrease in extracellular autophagosomal secretion. A) U1 cells (1×10^6) were treated±CBD (10 μM) for the following incubation periods: 0, 6, 24, and 48 hours. Cells were pelleted and lysed, exosomes from supernatants were enriched with NT80/82 beads overnight at 4° C. Samples were run through SDS-PAGE and western blotted for autophagy proteins (p62 and LC3), and Actin. B) U1 cells (1×10^6) were treated±10 μM CBD (every day), Rapamycin (50 nM), INK128 (50 nM), Bafilomycin A1 (50 nM), SB 203580 (20 μM), Wortmannin (2 nM) for a 5-day incubation period. Cells were pelleted and lysed, exosomes from supernatants were enriched using NT80/82 beads overnight at 4° C. Samples were run through SDS-PAGE and western blotted for autophagy proteins (p62, LC3, ATG12-ATG5, ATG12, Beclin-1), and Actin.
FIGS. 21A-21K are graphs showing normalized densitometry analysis of CBD and autophagy drug treatment on HIV-1 infected monocytes. Intracellular (A) p62, (B) LC3 I, (C) LC3 II, (D) ATG12-ATG5 complex, (E) ATG12, and (F) Beclin-1, and extracellular (G) p62, (H) LC3 I, (I) LC3 II, (J) ATG12-ATG5 complex, and (K) Beclin-1 densitometry counts were calculated from the Western blot data in FIG. 5B, normalized to respective intracellular and extracellular Actin levels, and plotted.
To determine the specific points at which CBD inhibits intracellular and extracellular autophagosome formation and secretion, we compared CBD treatment of U1 monocytes with known inhibitors of different points in the autophagy pathway. Cell viability was assessed among a panel of titrated autophagy drugs and the least toxic concentration per drug was utilized (FIG. 20). We treated U1 cells with CBD (10 μM) every day, Rapamycin (50 nM), INK128 (50 nM), Bafilomycin A1 (50 nM), SB 203580 (20 μM), or Wortmannin (2 nM) for 5 days. Our rationale for using these drugs was that they regulate different steps of autophagy including nucleation inhibition by inhibiting MTOR activity (Rapamycin, INK128) or by inhibiting pre-autophagosomal VPS34 complex activity (Wortmannin, SB 203580), and autophagosome-lysosome fusion inhibition (Bafilomycin A1). Therefore, a side-by-side comparison to CBD would potentially allow for a better definition of which step of autophagosome formation is primarily regulated by CBD. U1 cells were treated with the autophagy regulators and harvested along with their corresponding supernatants for further analysis using Western blot against p62, LC3, ATG12-ATG5 complex, free ATG12, Beclin-1, and Actin. Results in FIG. 18B (intracellular proteins, top panel) show autophagy protein profiles associated with the various autophagy regulators. […] The corresponding supernatants were enriched for EVs and also analyzed for the presence of autophagy proteins.

[2] = system: autophagy proteins (p62 and LC3) in U1 cells; assay: Autophagy proteins over time in U1 cells and their EVs (Western blot); type: cell-based
Experimental: as §1
FIGS. 19A-19E are graphs showing normalized densitometry analysis of CBD treatment of HIV-1 infected monocytes over time and autophagy. Intracellular (A) p62, (B) LC3 I, and (C) LC3 II levels, and extracellular (D) p62, and (E) LC3 I levels were counted on the Western blot data from FIG. 5A through densitometry analysis, followed by normalization to Actin levels.
We have previously described a complex relationship between the intracellular autophagy pathway, secretory autophagy pathway, and EVs, where regulation of the autophagy pathway in infected cells can result in the blocking of viral protein degradation and, in turn, the export of viral products through EVs. Based on this, we next asked whether CBD had any effect on EV release by examining the secretory autophagy pathway. In order to evaluate the levels of intracellular autophagy proteins in HIV-1 infected cells, U1 cells were treated with CBD (10 μM) for 0, 6, 24, and 48 hours, followed by Western blot analysis for autophagosomal markers, p62 and LC3 I/II (FIG. 18A). […] In order to examine any alterations that CBD might have on secretory autophagy in HIV-1 infected monocytes, EVs were enriched from the supernatants using NT80/82 and analyzed by Western blot for changes in secreted autophagosome proteins. […] This is in line with numerous studies which have shown the HIV-1 viral proteins Tat and Nef to be involved in autophagy deregulation in infected cells.

[3] = CBD 10 μM every day, FIG. 18B top panel
[4] = CBD 10 μM, Bafilomycin A1 50 nM, SB 203580 20 μM, Wortmannin 2 nM, lower panel

Structure (SMILES): C=C(C)[C@@H]1CCC(C)=C[C@H]1c1c(O)cc(CCCCC)cc1O [CBD, 2-[1R-3-methyl-6R-(1-methylethenyl)-2-cyclohexen-1-yl]-5-pentyl-1,3-benzenediol]
- intracellular ATG12-ATG5 [1, 3]: low levels
- intracellular Beclin-1 [1, 3]: high levels
- intracellular LC3 I [1, 3]: low levels
- EV-associated LC3 I [1, 4]: reduction
- EV-associated p62 [1, 4]: reduction
- LC3 I in secreted EVs ([2]; 10 μM, 6, 24, 48 hours vs untreated): overall lower level of LC3 I
- intracellular LC3 II ([2]; 10 μM, 6- and 24-hour vs controls): higher levels of LC3 II
- extracellular (EV) p62 ([2]; 10 μM, from the 6-hour time point onwards vs untreated): lower p62 levels
- intracellular p62 ([2]; 10 μM, starting at 24-hour, peaking at 48-hour, FIG. 18A): time dependent decrease
- intracellular LC3 I ([2]; 10 μM, up to 24 hours vs untreated): decrease in LC3 I levels
